As a reminder, the Kd is the free concentration of one partner at which half of the binding sites on the other are occupied at equilibrium, for simple one-to-one binding. Low values mean a tighter complex, high ones a looser complex.

Molecules are shown by their SMILES.

The target in assay [1] is Trm11–Trm112 complex (Saccharomyces cerevisiae, UniProt Q12463, D291A). In words: biochemical.
The target in assay [2] is Trm11–Trm112 complex (Saccharomyces cerevisiae, UniProt Q12463). In words: biochemical.
Trm11–Trm112 complex (Saccharomyces cerevisiae, UniProt Q12463), sequence (Q12463 whole entry): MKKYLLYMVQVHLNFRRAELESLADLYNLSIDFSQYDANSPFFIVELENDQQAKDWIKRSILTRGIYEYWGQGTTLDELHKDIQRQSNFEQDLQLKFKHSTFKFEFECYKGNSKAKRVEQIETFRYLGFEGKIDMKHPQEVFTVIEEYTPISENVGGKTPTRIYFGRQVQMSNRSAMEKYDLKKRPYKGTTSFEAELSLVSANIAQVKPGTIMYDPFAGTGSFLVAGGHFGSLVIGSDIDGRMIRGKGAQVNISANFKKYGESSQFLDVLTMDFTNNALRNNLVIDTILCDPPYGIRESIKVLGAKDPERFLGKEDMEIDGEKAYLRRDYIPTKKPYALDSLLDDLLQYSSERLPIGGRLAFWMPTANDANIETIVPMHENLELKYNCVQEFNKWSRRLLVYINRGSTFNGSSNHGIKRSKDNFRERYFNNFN
Trm11–Trm112 complex (Saccharomyces cerevisiae, UniProt Q12463), sequence (P53738 whole entry partner): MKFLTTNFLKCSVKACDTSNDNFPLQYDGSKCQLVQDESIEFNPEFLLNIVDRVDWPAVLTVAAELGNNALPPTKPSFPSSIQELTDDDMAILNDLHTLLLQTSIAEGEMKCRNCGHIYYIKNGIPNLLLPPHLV

Trm11–Trm112 complex (Saccharomyces cerevisiae, UniProt Q12463, D291A), sequence (Q12463 whole entry D291A): as the sequence (Q12463 whole entry) above, with D291A counted along it
Trm11–Trm112 complex (Saccharomyces cerevisiae, UniProt Q12463, D291A), sequence (P53738 whole entry partner): as the sequence (P53738 whole entry partner) above

On to `C[S+](CC[C@H](N)C(=O)O)C[C@H]1O[C@@H](n2cnc3c(N)ncnc32)[C@H](O)[C@@H]1O` (some centres unmarked) [SAM], for which the figures for the Kd in assay [1] and in assay [2] were 3.4 ± 0.6 µM and 1.9 ± 0.3 µM, respectively.

The record behind these values is publication PMC5389515 (Nucleic Acids Research, 2016).
